Reference: patent EP2272817A1, “PAI-1 INHIBITOR” (Institute of Medicinal Molecular Design, Inc., priority 2008, dated 2009)

Assays:
[1] = target: T1, recombinant rat PAI-1 (Rattus norvegicus, UniProt P20961); test: biochemical; conditions: read-out: Inhibition Rate of PAI-1 Activity (%)
T1 sequence (P20961 24-402): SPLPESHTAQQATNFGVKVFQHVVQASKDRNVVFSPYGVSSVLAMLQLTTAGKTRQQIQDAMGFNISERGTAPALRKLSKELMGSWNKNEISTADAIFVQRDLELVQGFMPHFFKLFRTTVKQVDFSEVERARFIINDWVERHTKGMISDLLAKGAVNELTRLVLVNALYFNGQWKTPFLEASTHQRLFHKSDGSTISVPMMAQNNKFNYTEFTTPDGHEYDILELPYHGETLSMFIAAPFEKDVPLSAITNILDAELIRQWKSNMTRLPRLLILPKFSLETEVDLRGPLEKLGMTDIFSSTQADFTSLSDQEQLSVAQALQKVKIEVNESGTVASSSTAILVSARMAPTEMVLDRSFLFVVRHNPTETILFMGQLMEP

[2] = target: T2, recombinant human PAI-1 (Homo sapiens, UniProt P05121); test: Test Example 4: Human PAI-1 Inhibitory Activity (amount of PAI-1 bound to plate-coated one-chain tPA, ELISA); format: biochemical; set-up: purchased Molecular Innovations, Inc; conditions: human PAI-1 bound to tPA, read-out: Inhibition Rate of PAI-1 Activity (%); for inhibition at 0.3 µM: Compound Concentration 0.3µM; for inhibition at 1 µM: Compound Concentration 1µM; for inhibition at 3 µM: Compound Concentration 3µM
T2 sequence (P05121 24-402): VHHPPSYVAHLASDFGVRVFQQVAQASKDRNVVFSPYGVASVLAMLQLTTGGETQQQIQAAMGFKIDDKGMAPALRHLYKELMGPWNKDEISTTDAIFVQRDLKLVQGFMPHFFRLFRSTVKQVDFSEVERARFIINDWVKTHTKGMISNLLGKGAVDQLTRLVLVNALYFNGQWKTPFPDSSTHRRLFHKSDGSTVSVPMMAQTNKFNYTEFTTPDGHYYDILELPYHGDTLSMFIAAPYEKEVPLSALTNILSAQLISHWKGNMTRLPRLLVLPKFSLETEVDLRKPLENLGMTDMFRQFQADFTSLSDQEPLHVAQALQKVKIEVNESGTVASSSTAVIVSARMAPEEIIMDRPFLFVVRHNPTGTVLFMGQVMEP
Description: 100 µl of tPA solution, where one-chain recombinant tPA (hereinafter reffered to as tPA; American diagnostica, inc.) had been diluted with Buffer A to acheive a concentration of 10 µg/ml, was added to each well of a 96-well plate (Nunc Maxisorp), and the plate was incubated for one night at 4 °C to be coated with tPA. Then, after suction of tPA solution from the 96-well plate, the plate was rinsed successively with Buffer A and Buffer B. To Buffer B, solutions of the compound according to the present invention dissolved with DMSO (final DMSO concentration: 0.2 %) and recombinant human PAI-1 (Molecular Innovations, Inc.) were added. The mixtures were blended so that the final concentrations would be 0.1 to 3.0 µM and 50 ng/ml respectively, and were incubated for 15 minutes on ice. These mixed solutions were added to the rinsed 96-well plate at 100 µl/well, and incubated for 60 minutes at room temperature. To prepare a calibration curve, PAI-1 solutions without the compound according to the present invention (solutions where the final concentrations being 100, 50, 25, 12.5, 6.25, 3.13, or 1.56 ng/ml PAI-1) were added at 100 µl/well, and the plate was incubated for 60 minutes at room temperature, as standard.
After incubation, the reaction mixture was removed by suction, and each well was rinsed with Wash Buffer. Next, anti-human PAI-1 monoclonal antibody (PROGEN Inc.) diluted with Buffer C to be 3.0 µg/ml was added to the 96-well plate at 100 µl/well, and the plate was incubated for 1 hour at room temperature. After rinsing each well with Wash Buffer, alkaline phosphatase-labeled goat anti-mouse IgG (H+L) (Jackson ImmunoResearch, Inc.) diluted with Buffer D to be 0.12 µg/ml was added at 100 µl/well, and the plate was incubated for 1 hour at room temperature. After rinsing each well with Wash Buffer, 1.0 mg/ml p-Nitrophenyl Phosphate (SIGMA) was added to the 96-well plate at 100 µl/well to start the reaction. After 30 to 60 minutes, 25 µl of 0.5 N NaOH was added to stop the reaction, and the absorbance was measured at 405 nm using a multiplate reader (GENios; TECAN G.M.B.H.).
Based on the calibration curve prepared from the standard wells, amounts of PAI-1 bound to tPA in the wells that had been treated with the compound according to the present invention were calculated, and the PAI-1 inhibition rates by the compounds according to the present invention were obtained by the following equation. [API-1InhibitionRate(%)] = [1-(amountofPAI-1boundtotPaonthewellbytreatmentwiththecompondaccordingtothepresentinvention)/(amountofPAI-1boundtotPAonthewellbytreatmentwithPAI-1solutionnotincledingthecompondaccordingtotheinvention(solution having the final concentration of 50 nb/ml PAI-1)] × 100 [formula] • <Composition of Buffer A> 0.1 M Tris-HCl, 150 mM NaCl, pH 7.7 • <Composition of Buffer B> 50 mM sodium phosphate, 0.1 M NaCl, 1 mM EDTA, pH 6.6 • <Composition of Buffer C> 50 mM sodium phosphate, 100 mM NaCl, pH 7.4 • <Composition of Buffer D> 0.01 M Tris-HCl, 0.25 M NaCl, pH 8.0 • <Compositon of Wash Buffer> 0.05 % Tween 20, 0.1 % BSA in Buffer A • <Composition of p-Nitrophenyl Phosphate solution> 1 M Diethanolamine 0.5 mM MgCl2, p-Nitrophenyl phosphate, pH 9.8

[3] = target: T2, recombinant human PAI-1; test: Test Example 2: Human PAI-1 Inhibitory Activity (pH 7.4 HEPES buffer, 10 minutes incubation with two-chain tPA); format: biochemical; set-up: purchased Molecular Innovations, Inc; conditions: read-out: Inhibition Rate of PAI-1 Activity (%)
Description: 0.1 M HEPES, 0.1 M NaCl. 1 mM EDTA. 0.1 % Polyethylene glycol 8,000 (Hampton Research Corporation),
2 mM Dimethyldecylphoshine oxide [Apo-10] (Fluka Corporation)

[4] = target: T2, recombinant human PAI-1; test: biochemical; conditions: for inhibition at 5 µM: read-out: Inhibition Rate of PAI-1 Activity (%), Compound Concentration 5µM; for inhibition at 10 µM: read-out: Inhibition Rate of PAI-1 Activity (%), Compound Concentration 10µM; for inhibition at 25 µM: read-out: Inhibition Rate of PAI-1 Activity (%), Compound Concentration 25µM

Cc1ccc(N(Cc2ccc(C(C)(C)C)cc2)C(=O)C(=O)O)cc1-c1ccc(OC(F)(F)F)cc1 [Compound 176]
inhibition at 0.3 µM [1]: 0% | inhibition at 1 µM [1]: 23% | inhibition at 3 µM [1]: 71% | inhibition at 10 µM [1]: > 99% | inhibition at 0.3 µM [2]: 9% | inhibition at 1 µM [2]: 9% | inhibition at 3 µM [2]: 29% | inhibition at 0.1 µM [3]: 0% | inhibition at 0.3 µM [3]: 10% | inhibition at 1 µM [3]: 21% | inhibition at 3 µM [3]: 96% | inhibition at 5 µM [4]: 65% | inhibition at 10 µM [4]: 94% | inhibition at 25 µM [4]: 91%

CCCOc1ccc(N(Cc2ccc(C(C)(C)C)cc2)C(=O)C(=O)O)cc1-c1ccc(OC(F)(F)F)cc1 [Compound 185]
inhibition at 0.3 µM [1]: 3% | inhibition at 1 µM [1]: 17% | inhibition at 3 µM [1]: 85% | inhibition at 10 µM [1]: 76% | inhibition at 0.3 µM [2]: 10% | inhibition at 1 µM [2]: 20% | inhibition at 3 µM [2]: 49% | inhibition at 0.1 µM [3]: 0% | inhibition at 0.3 µM [3]: 9% | inhibition at 1 µM [3]: 34% | inhibition at 3 µM [3]: > 99% | inhibition at 5 µM [4]: 81% | inhibition at 10 µM [4]: 87% | inhibition at 25 µM [4]: 89%

CC(C)(C)c1ccc(CN(C(=O)C(=O)O)c2ccc(Cl)c(-c3ccc(OC(F)(F)F)cc3)c2)cc1 [Compound 186]
inhibition at 0.3 µM [1]: 2% | inhibition at 1 µM [1]: 27% | inhibition at 3 µM [1]: 83% | inhibition at 10 µM [1]: 89% | inhibition at 0.3 µM [2]: 15% | inhibition at 1 µM [2]: 37% | inhibition at 3 µM [2]: 53% | inhibition at 0.1 µM [3]: 0% | inhibition at 0.3 µM [3]: 9% | inhibition at 1 µM [3]: 22% | inhibition at 3 µM [3]: > 99% | inhibition at 5 µM [4]: 76% | inhibition at 10 µM [4]: 91%

CCCCOc1ccc(-c2ccc(OC(F)(F)F)cc2)cc1N(Cc1ccc(C(C)(C)C)cc1)C(=O)C(=O)O [Compound 189]
inhibition at 0.3 µM [1]: 9% | inhibition at 1 µM [1]: 32% | inhibition at 3 µM [1]: 93% | inhibition at 10 µM [1]: > 99% | inhibition at 0.3 µM [2]: 16% | inhibition at 1 µM [2]: 30% | inhibition at 3 µM [2]: 70% | inhibition at 0.1 µM [3]: 4% | inhibition at 0.3 µM [3]: 2% | inhibition at 1 µM [3]: 60% | inhibition at 3 µM [3]: 97% | inhibition at 5 µM [4]: 87% | inhibition at 10 µM [4]: 95%

COc1cc(OC)c(N(Cc2ccc(C(C)(C)C)cc2)C(=O)C(=O)O)cc1-c1ccc(OC(F)(F)F)cc1 [Compound 190]
inhibition at 0.3 µM [1]: 0% | inhibition at 1 µM [1]: 11% | inhibition at 3 µM [1]: 66% | inhibition at 10 µM [1]: > 99% | inhibition at 0.3 µM [2]: 0% | inhibition at 1 µM [2]: 9% | inhibition at 3 µM [2]: 55% | inhibition at 0.1 µM [3]: 2% | inhibition at 0.3 µM [3]: 3% | inhibition at 1 µM [3]: 27% | inhibition at 3 µM [3]: 95% | inhibition at 5 µM [4]: 65% | inhibition at 10 µM [4]: 91% | inhibition at 25 µM [4]: 91%

CCCCCOc1ccc(-c2ccc(OC(F)(F)F)cc2)cc1N(Cc1ccc(C(C)(C)C)cc1)C(=O)C(=O)O [Compound 194]
inhibition at 0.3 µM [1]: 5% | inhibition at 1 µM [1]: 39% | inhibition at 3 µM [1]: 98% | inhibition at 10 µM [1]: > 99% | inhibition at 0.3 µM [2]: 6% | inhibition at 1 µM [2]: 22% | inhibition at 3 µM [2]: 56% | inhibition at 0.1 µM [3]: 0% | inhibition at 0.3 µM [3]: 7% | inhibition at 1 µM [3]: 63% | inhibition at 3 µM [3]: 98% | inhibition at 5 µM [4]: 84% | inhibition at 10 µM [4]: 84%

CCC(CC)Oc1ccc(N(Cc2ccc(C(C)(C)C)cc2)C(=O)C(=O)O)cc1-c1ccc(OC(F)(F)F)cc1 [Compound 197]
inhibition at 0.3 µM [1]: 0% | inhibition at 1 µM [1]: 37% | inhibition at 3 µM [1]: 84% | inhibition at 10 µM [1]: 75% | inhibition at 0.3 µM [2]: 21% | inhibition at 1 µM [2]: 34% | inhibition at 3 µM [2]: 73% | inhibition at 0.1 µM [3]: 6% | inhibition at 0.3 µM [3]: 1% | inhibition at 1 µM [3]: 38% | inhibition at 3 µM [3]: > 99% | inhibition at 5 µM [4]: 90% | inhibition at 10 µM [4]: 92% | inhibition at 25 µM [4]: 73%

CCCOc1ccc(N(Cc2ccc(C(C)(C)C)cc2)C(=O)C(=O)O)c(-c2ccc(OC(F)(F)F)cc2)c1 [Compound 198]
inhibition at 0.3 µM [1]: 4% | inhibition at 1 µM [1]: 12% | inhibition at 3 µM [1]: 84% | inhibition at 10 µM [1]: 89% | inhibition at 0.3 µM [2]: 6% | inhibition at 1 µM [2]: 4% | inhibition at 3 µM [2]: 33% | inhibition at 0.1 µM [3]: 11% | inhibition at 0.3 µM [3]: 8% | inhibition at 1 µM [3]: 33% | inhibition at 3 µM [3]: > 99% | inhibition at 5 µM [4]: 79% | inhibition at 10 µM [4]: 95% | inhibition at 25 µM [4]: 85%

CCC(CC)Oc1ccc(-c2ccc(OC(F)(F)F)cc2)cc1N(Cc1ccc(C(C)(C)C)cc1)C(=O)C(=O)O [Compound 199]
inhibition at 0.3 µM [1]: 0% | inhibition at 1 µM [1]: 35% | inhibition at 3 µM [1]: 97% | inhibition at 10 µM [1]: > 99% | inhibition at 0.3 µM [2]: 18% | inhibition at 1 µM [2]: 41% | inhibition at 3 µM [2]: 73% | inhibition at 0.1 µM [3]: 9% | inhibition at 0.3 µM [3]: 13% | inhibition at 1 µM [3]: 64% | inhibition at 3 µM [3]: > 99% | inhibition at 5 µM [4]: 83% | inhibition at 10 µM [4]: 89%

CCCCc1ccc(CN(C(=O)C(=O)O)c2ccc(-c3ccc(C(C)(C)C)cc3)cc2)cc1 [Compound 206]
inhibition at 0.3 µM [1]: 3% | inhibition at 1 µM [1]: 29% | inhibition at 3 µM [1]: 90% | inhibition at 10 µM [1]: 88% | inhibition at 0.3 µM [2]: 0% | inhibition at 1 µM [2]: 17% | inhibition at 3 µM [2]: 40% | inhibition at 0.1 µM [3]: 3% | inhibition at 0.3 µM [3]: 13% | inhibition at 1 µM [3]: 66% | inhibition at 3 µM [3]: > 99% | inhibition at 5 µM [4]: 78% | inhibition at 10 µM [4]: 92% | inhibition at 25 µM [4]: 89%
